From publication PMC5835287, “Synthesis, Characterization, and BSA-Binding Studies of Novel Sulfonated Zinc-Triazine Complexes” (Bioinorganic Chemistry and Applications, 2018) come the findings set out here.

Counter-ions that a name gives are not always drawn.

The target of the test is T1, bovine serum albumin (BSA) (Bos taurus, UniProt P02769).
T1 construct: gene ALB
Kind of test: UV absorbance titration at […] nm (binding constant Kb from […]/(A-A0) vs […]/[C] plot). Conditions: read-out: UV absorbance titration at 280 nm (binding constant Kb from 1/(A-A0) vs 1/[C] pl) (converted).

T1 sequence (P02769 25-607): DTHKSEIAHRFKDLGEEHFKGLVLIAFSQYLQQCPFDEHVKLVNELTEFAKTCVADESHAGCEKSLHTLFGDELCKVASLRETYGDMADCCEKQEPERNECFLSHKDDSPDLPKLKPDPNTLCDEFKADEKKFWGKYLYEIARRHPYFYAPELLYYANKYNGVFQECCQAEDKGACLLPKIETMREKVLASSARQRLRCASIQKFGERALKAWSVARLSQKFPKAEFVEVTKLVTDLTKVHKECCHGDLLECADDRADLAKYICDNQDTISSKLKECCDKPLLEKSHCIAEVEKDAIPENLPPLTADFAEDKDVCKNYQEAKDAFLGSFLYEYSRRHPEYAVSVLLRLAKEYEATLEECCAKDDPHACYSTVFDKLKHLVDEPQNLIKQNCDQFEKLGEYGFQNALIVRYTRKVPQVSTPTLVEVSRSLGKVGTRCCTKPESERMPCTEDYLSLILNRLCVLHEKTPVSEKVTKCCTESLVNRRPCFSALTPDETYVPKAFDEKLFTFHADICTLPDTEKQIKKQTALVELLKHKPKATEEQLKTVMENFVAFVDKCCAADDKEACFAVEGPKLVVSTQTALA

For the compound `O=S(=O)(O)c1ccc(-c2nnc(-c3ccccn3)nc2-c2ccc(S(=O)(=O)O)o2)o1` [L1, 3-(2-pyridyl)-5,6-di(2-furyl)-1,2,4-triazine-5′,5″-disulfonic acid disodium salt], the Kd was 32.4 µM.
